Measured values published in ChEMBL document CHEMBL1909046, “DrugMatrix in vitro pharmacology data”.
Where a SMILES comes first, the peptide text is derived from it. Bridges are numbered along the chain shown (N, C = ends). [ ]: non-standard residue; d: D form. The star is where a group is joined. Ileψ(thiazoline)Cys = CC[C@H](C)[C@H](N)C1=N[C@H](C(=O)*)CS1; dOrn = NCCC[C@@H](N)C(=O)O

Assays:
[1] = DRUGMATRIX: Glutamate, Kainate radioligand binding (ligand: [3H] Kainic acid); format: cell membranes, Rattus norvegicus, Wistar, Brain, Membrane; conditions: Not Active = under 50% inhibition at 10 µM
[2] = molecular target: Matrix metalloproteinase-9 (Homo sapiens, UniProt P14780); format: cell-based;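 also: inhibition of isolated MMP-9 enzyme activity toward a synthetic peptide substrate, from the DrugMatrix protease screening panel; in other assays of this panel Not Active means under 50% inhibition at 10 µM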
Matrix metalloproteinase-9, sequence (P14780 whole entry): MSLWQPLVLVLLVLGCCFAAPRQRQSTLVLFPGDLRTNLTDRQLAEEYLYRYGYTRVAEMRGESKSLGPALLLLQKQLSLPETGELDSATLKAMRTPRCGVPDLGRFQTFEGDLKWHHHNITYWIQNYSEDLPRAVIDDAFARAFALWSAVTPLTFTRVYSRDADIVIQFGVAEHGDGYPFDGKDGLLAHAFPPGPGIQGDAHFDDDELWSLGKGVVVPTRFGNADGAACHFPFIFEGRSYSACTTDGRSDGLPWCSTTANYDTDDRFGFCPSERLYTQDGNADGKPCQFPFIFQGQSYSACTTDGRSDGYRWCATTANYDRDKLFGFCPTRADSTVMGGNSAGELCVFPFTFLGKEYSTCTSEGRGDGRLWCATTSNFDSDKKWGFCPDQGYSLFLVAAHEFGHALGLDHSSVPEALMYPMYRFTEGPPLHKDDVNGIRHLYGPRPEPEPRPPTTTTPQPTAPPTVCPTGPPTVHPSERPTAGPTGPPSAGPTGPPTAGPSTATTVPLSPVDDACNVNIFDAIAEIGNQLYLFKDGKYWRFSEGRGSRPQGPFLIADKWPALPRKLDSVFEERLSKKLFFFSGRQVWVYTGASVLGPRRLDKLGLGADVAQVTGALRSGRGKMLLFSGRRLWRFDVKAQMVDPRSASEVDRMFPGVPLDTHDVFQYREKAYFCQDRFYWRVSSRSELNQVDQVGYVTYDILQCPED

[3] = molecular target: Substance-P receptor (Homo sapiens, UniProt P25103); format: cell membranes, CHO, Membrane; conditions: cho; also: in other assays of this panel Not Active means under 50% inhibition at 10 µM
Substance-P receptor, sequence (P25103 whole entry): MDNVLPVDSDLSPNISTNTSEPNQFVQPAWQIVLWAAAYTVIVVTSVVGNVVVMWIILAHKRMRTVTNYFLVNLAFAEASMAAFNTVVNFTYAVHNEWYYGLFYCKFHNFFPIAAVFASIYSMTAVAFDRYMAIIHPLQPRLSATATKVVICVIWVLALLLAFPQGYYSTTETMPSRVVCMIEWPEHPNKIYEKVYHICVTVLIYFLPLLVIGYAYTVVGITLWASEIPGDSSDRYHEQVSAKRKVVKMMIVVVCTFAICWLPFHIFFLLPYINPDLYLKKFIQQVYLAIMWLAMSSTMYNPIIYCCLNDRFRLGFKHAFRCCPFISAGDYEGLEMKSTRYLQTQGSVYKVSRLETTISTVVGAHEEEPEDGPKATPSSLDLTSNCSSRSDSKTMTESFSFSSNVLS

[4] = molecular target: T1, Cytochrome P450 2A6 (Homo sapiens, UniProt P11509); conditions: bti-tn-5b1-4; also: in other assays of this panel Not Active means under 50% inhibition at 10 µM
T1 sequence (P11509 whole entry): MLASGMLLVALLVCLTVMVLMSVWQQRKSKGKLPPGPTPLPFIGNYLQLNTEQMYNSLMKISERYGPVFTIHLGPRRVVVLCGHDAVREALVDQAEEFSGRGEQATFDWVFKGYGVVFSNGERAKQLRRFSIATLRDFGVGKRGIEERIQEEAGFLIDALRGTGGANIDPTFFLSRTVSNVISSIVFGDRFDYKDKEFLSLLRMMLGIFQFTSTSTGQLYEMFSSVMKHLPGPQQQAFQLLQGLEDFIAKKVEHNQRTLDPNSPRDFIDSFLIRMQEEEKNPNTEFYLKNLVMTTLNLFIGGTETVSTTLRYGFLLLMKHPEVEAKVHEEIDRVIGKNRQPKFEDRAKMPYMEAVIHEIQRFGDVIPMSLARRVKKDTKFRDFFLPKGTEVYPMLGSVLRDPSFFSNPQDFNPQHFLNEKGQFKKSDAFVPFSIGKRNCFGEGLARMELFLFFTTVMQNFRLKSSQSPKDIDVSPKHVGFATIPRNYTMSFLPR

[5] = DRUGMATRIX: GABAA, Flunitrazepam, Central radioligand binding (ligand: [3H] Flunitrazepam); format: cell membranes, Rattus norvegicus, Wistar, Brain, Membrane; conditions: Not Active = under 50% inhibition at 10 µM
[6] = molecular target: T2, Polyunsaturated fatty acid lipoxygenase ALOX15 (Oryctolagus cuniculus, UniProt P12530); assay: biochemical; format: tissue-based, Reticulocytes; conditions: reticulocytes;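 also: inhibition of 15-lipoxygenase enzyme activity measured with linoleic acid as the substrate; in other assays of this panel Not Active means under 50% inhibition at 10 µM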
T2 sequence (P12530 whole entry): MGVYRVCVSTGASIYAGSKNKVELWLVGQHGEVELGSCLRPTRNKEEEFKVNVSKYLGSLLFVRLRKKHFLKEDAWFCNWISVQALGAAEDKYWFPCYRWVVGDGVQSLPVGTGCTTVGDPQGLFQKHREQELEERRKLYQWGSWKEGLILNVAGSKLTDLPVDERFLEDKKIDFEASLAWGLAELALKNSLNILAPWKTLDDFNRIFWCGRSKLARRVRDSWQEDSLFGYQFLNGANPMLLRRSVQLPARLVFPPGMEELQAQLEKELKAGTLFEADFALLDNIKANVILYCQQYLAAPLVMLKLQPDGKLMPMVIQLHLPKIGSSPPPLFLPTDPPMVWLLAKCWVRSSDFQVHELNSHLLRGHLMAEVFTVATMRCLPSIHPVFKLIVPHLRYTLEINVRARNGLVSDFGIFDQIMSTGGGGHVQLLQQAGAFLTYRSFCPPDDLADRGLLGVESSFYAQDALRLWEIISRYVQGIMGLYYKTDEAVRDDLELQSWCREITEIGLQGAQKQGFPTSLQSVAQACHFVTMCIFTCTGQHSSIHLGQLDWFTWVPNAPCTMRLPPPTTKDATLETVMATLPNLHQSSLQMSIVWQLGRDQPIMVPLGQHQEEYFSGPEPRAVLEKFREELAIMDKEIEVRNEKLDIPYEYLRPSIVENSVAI

[7] = DRUGMATRIX: Sigma2 radioligand binding (ligand: [3H] Ifenprodil); format: cell membranes, Rattus norvegicus, Wistar, Brain, Membrane; conditions: Not Active = under 50% inhibition at 10 µM
[8] = molecular target: Protein phosphatase 3 catalytic subunit alpha (Homo sapiens, UniProt Q08209); design: species or system Escherichia coli
[9] = molecular target: T3, Leukotriene C4 synthase (Cavia porcellus, UniProt A6XA80); assay: biochemical; format: tissue-based, Lung
T3 sequence (A6XA80 whole entry): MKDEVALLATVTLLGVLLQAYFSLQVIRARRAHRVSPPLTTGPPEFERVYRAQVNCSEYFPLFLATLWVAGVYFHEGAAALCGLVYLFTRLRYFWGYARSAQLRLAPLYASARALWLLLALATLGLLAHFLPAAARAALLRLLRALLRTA

[10] = molecular target: Sigma non-opioid intracellular receptor 1 (Homo sapiens, UniProt Q99720); assay: DRUGMATRIX: Sigma1 radioligand binding (ligand: [3H] Haloperidol); format: cell membranes, Jurkat, Membrane; conditions: jurkat; Not Active = under 50% inhibition at 10 µM
Sigma non-opioid intracellular receptor 1, sequence (Q99720 whole entry): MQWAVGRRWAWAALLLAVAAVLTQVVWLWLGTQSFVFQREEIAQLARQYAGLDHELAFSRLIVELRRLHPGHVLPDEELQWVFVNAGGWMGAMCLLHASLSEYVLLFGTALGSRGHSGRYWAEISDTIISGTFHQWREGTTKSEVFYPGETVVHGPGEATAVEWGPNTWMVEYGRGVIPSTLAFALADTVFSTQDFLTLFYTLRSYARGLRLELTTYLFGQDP

[11] = molecular target: cGMP-specific 3',5'-cyclic phosphodiesterase (Homo sapiens, UniProt O76074); assay: DRUGMATRIX: Phosphodiesterase PDE5 enzyme inhibition (substrate: [3H]cGMP + cGMP); format: tissue-based, Platelet; conditions: Not Active = under 50% inhibition at 10 µM
[12] = molecular target: Platelet-activating factor receptor (Homo sapiens, UniProt P25105); assay: biochemical; format: tissue-based; conditions: platelet; also: in other assays of this panel Not Active means under 50% inhibition at 10 µM
Platelet-activating factor receptor, sequence (P25105 whole entry): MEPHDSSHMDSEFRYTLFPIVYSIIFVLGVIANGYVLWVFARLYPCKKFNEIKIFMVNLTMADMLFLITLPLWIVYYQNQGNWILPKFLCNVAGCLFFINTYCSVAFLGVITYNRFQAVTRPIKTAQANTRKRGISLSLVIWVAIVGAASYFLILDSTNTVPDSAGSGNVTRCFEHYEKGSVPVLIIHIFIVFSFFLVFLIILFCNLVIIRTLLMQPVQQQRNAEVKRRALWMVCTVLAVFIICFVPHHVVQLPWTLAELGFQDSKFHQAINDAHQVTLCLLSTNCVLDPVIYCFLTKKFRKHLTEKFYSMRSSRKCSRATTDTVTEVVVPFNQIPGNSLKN

[13] = molecular target: T4, Estrogen receptor (Homo sapiens, UniProt P03372); conditions: sf9; also: in other assays of this panel Not Active means under 50% inhibition at 10 µM
T4 sequence (P03372 whole entry): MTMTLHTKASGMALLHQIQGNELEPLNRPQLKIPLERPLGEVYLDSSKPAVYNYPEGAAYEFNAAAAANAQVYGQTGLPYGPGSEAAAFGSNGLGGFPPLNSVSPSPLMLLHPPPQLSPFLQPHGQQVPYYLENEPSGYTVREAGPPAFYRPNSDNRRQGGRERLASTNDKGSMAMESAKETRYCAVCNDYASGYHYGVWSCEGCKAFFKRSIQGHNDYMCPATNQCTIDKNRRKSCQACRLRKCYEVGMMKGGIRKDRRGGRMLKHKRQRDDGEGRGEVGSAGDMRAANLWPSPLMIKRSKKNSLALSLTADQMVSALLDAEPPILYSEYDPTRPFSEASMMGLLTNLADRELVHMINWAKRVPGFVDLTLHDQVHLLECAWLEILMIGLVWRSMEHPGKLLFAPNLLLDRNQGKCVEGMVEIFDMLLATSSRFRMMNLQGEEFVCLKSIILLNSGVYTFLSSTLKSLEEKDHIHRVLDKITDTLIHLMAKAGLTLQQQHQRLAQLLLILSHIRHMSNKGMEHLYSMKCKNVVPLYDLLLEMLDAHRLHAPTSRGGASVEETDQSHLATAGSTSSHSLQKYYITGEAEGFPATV

[14] = DRUGMATRIX: Phorbol Ester radioligand binding (ligand: [3H] PDBu); format: cell membranes, Mus musculus, ICR, Brain, Membrane; conditions: Not Active = under 50% inhibition at 10 µM
[15] = molecular target: 5-hydroxytryptamine receptor 1B (Rattus norvegicus, UniProt P28564); format: cell membranes, Wistar, Cerebral cortex, Membrane; also: in other assays of this panel Not Active means under 50% inhibition at 10 µM
5-hydroxytryptamine receptor 1B, sequence (P28564 whole entry): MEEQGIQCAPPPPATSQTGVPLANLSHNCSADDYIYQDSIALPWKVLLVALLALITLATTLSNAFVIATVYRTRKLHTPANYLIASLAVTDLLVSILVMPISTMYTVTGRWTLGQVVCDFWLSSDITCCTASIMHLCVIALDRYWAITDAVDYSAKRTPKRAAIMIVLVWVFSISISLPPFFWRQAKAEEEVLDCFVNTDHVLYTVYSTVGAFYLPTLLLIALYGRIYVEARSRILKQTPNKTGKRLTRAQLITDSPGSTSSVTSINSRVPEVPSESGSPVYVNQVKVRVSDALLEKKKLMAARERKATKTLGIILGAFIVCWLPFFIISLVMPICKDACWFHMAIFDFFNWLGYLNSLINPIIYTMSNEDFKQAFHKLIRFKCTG

CC[C@H](C)[C@H](N)C1=N[C@H](C(=O)N[C@@H](CC(C)C)C(=O)N[C@H](CCC(=O)O)C(=O)N[C@H](C(=O)N[C@H]2CCCCNC(=O)[C@H](CC(N)=O)NC(=O)[C@@H](CC(=O)O)NC(=O)[C@H](Cc3cnc[nH]3)NC(=O)[C@@H](Cc3ccccc3)NC(=O)[C@H]([C@@H](C)CC)NC(=O)[C@@H](CCCN)NC2=O)[C@@H](C)CC)CS1 [BACITRACIN] ({Ileψ(thiazoline)Cys}-L[dE]IK[dOrn]I[dF]H[dD]N; lactam 4-C)
Not Active: IC50 [1] | Ki [1] | IC50 [2] | IC50 [3] | IC50 [4] | Ki [4] | IC50 [5] | Ki [5] | IC50 [6] | IC50 [7] | Ki [7] | IC50 [8] | IC50 [9] | IC50 [10] | IC50 ([11]; platelet) | IC50 [12] | IC50 [13] | IC50 [14] | Ki [14]

O=C1OCCN1/N=C/c1ccc([N+](=O)[O-])o1 [FURAZOLIDONE]
Not Active: IC50 [1] | Ki [1] | IC50 [2] | IC50 [3] | IC50 [5] | Ki [5] | IC50 [6] | IC50 [7] | Ki [7] | IC50 [8] | IC50 [9] | IC50 [10] | IC50 ([11]; platelet) | IC50 [12] | IC50 [13] | IC50 [15] | IC50 [14] | Ki [14]

O=c1cc(-c2ccccc2)oc2c1ccc1ccccc12 [ALPHA-NAPHTHOFLAVONE]
2300 nM: IC50 ([11]; read-out: IC50)
Not Active: IC50 [1] | Ki [1] | IC50 [2] | IC50 [3] | IC50 [4] | Ki [4] | IC50 [5] | Ki [5] | IC50 [6] | IC50 [7] | Ki [7] | IC50 [8] | IC50 [9] | IC50 [12] | IC50 [13] | IC50 [15] | IC50 [14] | Ki [14]

NCC(=O)O [GLYCINE]
Not Active: IC50 [1] | Ki [1] | IC50 [2] | IC50 [3] | IC50 [5] | Ki [5] | IC50 [6] | IC50 [7] | Ki [7] | IC50 [8] | IC50 [9] | IC50 [10] | IC50 ([11]; platelet) | IC50 [12] | IC50 [13] | IC50 [15] | IC50 [14] | Ki [14]
